Experimental data: patent publication US20230210999A1, “TARGETED PROTEASE DEGRADATION (TED) PLATFORM” (EUBULUS BIOTHERAPEUTICS INC., priority 2020, published 2023)
Read-outs that look alike come from different tables or passages of the source.

Key:
Type in all cases: cell-based, human
MDA-MB-231 cells = assay: Cell proliferation experiment, MDA-MB-231; details: read-out: Inhibitory activity IC50 on MDA-MB-231
In short: (§1)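 IC50 values derive from a four-parameter logistic fit of Alamar blue fluorescence. Cells in logarithmic growth, plated in 96-well format, are treated for 72 h with compound diluted 5-fold serially, two wells per concentration.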

PC-3 = assay: Cell proliferation experiment, PC-3; details: read-out: Inhibitory activity IC50 on PC-3
In short: as §1

NCIH82 cells = assay: Cell proliferation experiment, NCI-H82; details: read-out: Inhibitory activity IC50 on NCI-H82
In short: as §1

MV4;11 cells = assay: Cell proliferation experiment (Alamar blue, 72 h), MV4;11; details: read-out: Inhibitory activity IC50 on MV4;11
In short: as §1

Daudi cells = assay: Cell proliferation experiment, Daudi; details: Daudi cells, read-out: Inhibitory activity IC50 on Daudi
In short: as §1

[1] = Homo sapiens, MDA-MB-231, MDA-MB-231 cells
[2] = Homo sapiens, NCI-H82, NCI-H82 cells
[3] = Homo sapiens, MV4-11, MV4;11 cells

Row | Compound | IC50 (MDA-MB-231 cells; [1]) [nM] | IC50 (PC-3; Homo sapiens, PC-3, PC-3 cells) [nM] | IC50 (NCIH82 cells; [2]) [nM] | IC50 (MV4;11 cells; [3]) [nM] | IC50 (Daudi cells; Homo sapiens, Daudi) [nM] | IC50 (PC-3; PC-3 cells) [nM] | IC50 (Daudi cells) [nM] | IC50 (NCIH82 cells; NCI-H82 cells) [nM] | IC50 (MDA-MB-231 cells; MDA-MB-231 cells) [nM] | IC50 (MV4;11 cells; MV4;11 cells) [nM]
1 | CCNC(=O)C#Cc1ccc2c(c1)NC(=O)/C2=C(\Nc1ccc(CNCCOCCOCCOCCOCCC(=O)Nc2ccc3c(c2)CN(C2CCC(=O)NC2=O)C3=O)cc1)c1ccccc1 (stereo not shown) [UB-180957] | > 1000 | > 1000 | 100 to 1000 | 10 to 100 | 100 to 1000 |  |  |  |  | 
2 | CNC(=O)c1ccccc1Nc1nc(Nc2ccc(N3CCN(C(=O)NCCCCOCCCCNCC(=O)Nc4cccc5c4CN(C4CCC(=O)NC4=O)C5=O)CC3)cc2)ncc1Cl (stereo not shown) [UB-181048] | > 1000 | > 1000 | 100 to 1000 | < 10 | 10 to 100 |  |  |  |  | 
3 | CNC(=O)c1ccccc1Nc1nc(Nc2ccc(N3CCN(C(=O)NCCCCOCCCCNCC(=O)Nc4ccc5c(c4)CN(C4CCC(=O)NC4=O)C5=O)CC3)cc2)ncc1Cl (stereo not shown) [UB-181049] | > 1000 | 100 to 1000 | 10 to 100 | 10 to 100 | 10 to 100 |  |  |  |  | 
4 | CNC(=O)c1ccccc1Nc1nc(Nc2ccc(N3CCN(C(=O)NCCNCCC(=O)Nc4ccc5c(c4)CN(C4CCC(=O)NC4=O)C5=O)CC3)cc2)ncc1Cl (stereo not shown) [UB-181054] | > 1000 | > 1000 | 100 to 1000 | < 10 | 10 to 100 |  |  |  |  | 
5 | CNC(=O)c1ccccc1Nc1nc(Nc2ccc(N3CCN(C(=O)NCCCOCC(O)COCC#Cc4ccc5c(c4)CN(C4CCC(=O)NC4=O)C5=O)CC3)cc2)ncc1Cl (stereo not shown) [UB-181076] | > 1000 | > 1000 | 100 to 1000 | < 10 | 10 to 100 |  |  |  |  | 
6 | CC[C@@H]1C(=O)N(C)c2cnc(Nc3ccc(-c4cn([C@H]5CC[C@@H](NCCOCCC#Cc6cccc7c6CN(C6CCC(=O)NC6=O)C7=O)CC5)nn4)cc3OC)nc2N1Cc1ccc(Cl)s1 (stereo partly shown) [UB-181145] | < 10 | < 10 |  | < 10 | < 10 |  |  |  |  | 
7 | CC[C@@H]1C(=O)N(C)c2cnc(Nc3ccc(-c4cn([C@H]5CC[C@@H](N(CCOCCC#Cc6cccc7c6CN(C6CCC(=O)NC6=O)C7=O)C(=O)OCc6ccc(NC(=O)[C@H](CC(N)=O)NC(=O)[C@H](C)NC(=O)[C@H](C)NC(=O)CCCCCN7C(=O)C=CC7=O)cc6)CC5)nn4)cc3OC)nc2N1C1CCCC1 (stereo partly shown) [UB-181149] | 100 to 1000 | 100 to 1000 |  | 100 to 1000 | 100 to 1000 |  |  |  |  | 
8 | CC[C@@H]1C(=O)N(C)c2cnc(Nc3ccc(-c4cn([C@H]5CC[C@@H](NCCOCCC#Cc6cccc7c6CN(C6CCC(=O)NC6=O)C7=O)CC5)nn4)cc3)nc2N1C1CCCC1 (stereo partly shown) [UB-181154] |  |  |  |  |  | 10 to 100 | 100 to 1000 |  | 100 to 1000 | < 10
9 | CC[C@@H]1C(=O)N(C)c2cnc(Nc3ccc(C(=O)N[C@H]4CC[C@@H](NCCOCCC#Cc5cccc6c5CN([C@H]5CCC(=O)NC5=O)C6=O)CC4)cc3)nc2N1C1CCCC1 [UB-181170] | 10 to 100 | 10 to 100 |  | < 10 | 10 to 100 |  |  |  |  | 
10 | CC[C@@H]1C(=O)N(C)c2cnc(Nc3ccc(C(=O)NC4CCN(CCOCCN(C)CC(=O)Nc5cccc6c5CN(C5CCC(=O)NC5=O)C6=O)CC4)nc3)nc2N1C1CCCC1 (stereo partly shown) [UB-181171] | > 1000 | > 1000 |  | 10 to 100 | > 1000 |  |  |  |  | 
11 | CC[C@@H]1C(=O)N(C)c2cnc(Nc3ccc(C(=O)N[C@H]4CC[C@@H](N(C)CCOCCC#Cc5cccc6c5CN(C5CCC(=O)NC5=O)C6=O)CC4)cc3)nc2N1C1CCCC1 (stereo partly shown) [UB-181175] | 10 to 100 | 10 to 100 |  | < 10 | 10 to 100 |  |  |  |  | 
12 | CC[C@@H]1C(=O)N(C)c2cnc(Nc3ccc(C(=O)N[C@H]4CC[C@H](N(C)CCOCCC#Cc5cccc6c5CN(C5CCC(=O)NC5=O)C6=O)CC4)cc3)nc2N1C1CCCC1 (stereo partly shown) [UB-181176] | 10 to 100 | 10 to 100 |  | < 10 | 10 to 100 |  |  |  |  | 
13 | CC[C@@H]1C(=O)N(C)c2cnc(Nc3ccc(C(=O)N[C@H]4CC[C@@H](N(C)CCOCCC#Cc5cccc6c5CN(C5CCC(=O)NC5=O)C6=O)CC4)cc3OC)nc2N1C1CCCC1 (stereo partly shown) [UB-181177] | < 10 | < 10 |  | < 10 | 10 to 100 |  |  |  |  | 
14 | CC[C@@H]1C(=O)N(C)c2cnc(Nc3ccc(C(=O)N[C@H]4CC[C@H](N(C)CCOCCC#Cc5cccc6c5CN(C5CCC(=O)NC5=O)C6=O)CC4)cc3OC)nc2N1C1CCCC1 (stereo partly shown) [UB-181178] | 10 to 100 | 10 to 100 |  | < 10 | < 10 |  |  |  |  | 

Other lines, results leading:

Row | IC50 (MDA-MB-231 cells; [1]) [nM] | IC50 (PC-3; Homo sapiens, PC-3, PC-3 cells) [nM] | IC50 (NCIH82 cells; [2]) [nM] | IC50 (MV4;11 cells; [3]) [nM] | IC50 (Daudi cells; Homo sapiens, Daudi) [nM] | IC50 (PC-3; PC-3 cells) [nM] | IC50 (Daudi cells) [nM] | IC50 (NCIH82 cells; NCI-H82 cells) [nM] | IC50 (MDA-MB-231 cells; MDA-MB-231 cells) [nM] | IC50 (MV4;11 cells; MV4;11 cells) [nM] | Compound
15 | 100 to 1000 |  | 100 to 1000 | < 10 |  | 10 to 100 | 10 to 100 |  |  |  | CNC(=O)c1ccccc1Nc1nc(Nc2ccc(N3CCN(C(=O)N[C@H]4CC[C@@H](NCCOCCC#Cc5cccc6c5CN(C5CCC(=O)NC5=O)C6=O)CC4)CC3)cc2)ncc1Cl (stereo partly shown) [UB-181078]
16 | 100 to 1000 | 10 to 100 |  | < 10 | 10 to 100 |  |  | 100 to 1000 |  |  | CNC(=O)c1ccccc1Nc1nc(Nc2ccc(N3CCN(C(=O)N[C@H]4CC[C@@H](NCCOCCC#Cc5ccc6c(c5)CN(C5CCC(=O)NC5=O)C6=O)CC4)CC3)cc2)ncc1Cl (stereo partly shown) [UB-181080]
17 | 100 to 1000 | 10 to 100 | 10 to 100 | < 10 | 10 to 100 |  |  |  |  |  | CNC(=O)c1ccccc1Nc1nc(Nc2ccc(N3CCN(C(=O)N[C@H]4CC[C@@H](NCCCC#Cc5cccc6c5CN(C5CCC(=O)NC5=O)C6=O)CC4)CC3)cc2)ncc1Cl (stereo partly shown) [UB-181100]
18 | 100 to 1000 | 100 to 1000 | 10 to 100 | < 10 | 10 to 100 |  |  |  |  |  | CNC(=O)c1ccccc1Nc1nc(Nc2ccc(N3CCN(C(=O)N[C@H]4CC[C@@H](NCCCC#Cc5ccc6c(c5)CN(C5CCC(=O)NC5=O)C6=O)CC4)CC3)cc2)ncc1Cl (stereo partly shown) [UB-181101]
19 | > 1000 | > 1000 | 100 to 1000 | 10 to 100 | 100 to 1000 |  |  |  |  |  | CNC(=O)c1ccccc1Nc1nc(Nc2ccc(N3CCN(C(=O)N[C@H]4CC[C@@H](NCCCCOCC(=O)Nc5cccc6c5CN(C5CCC(=O)NC5=O)C6=O)CC4)CC3)cc2)ncc1Cl (stereo partly shown) [UB-181102]
20 | 100 to 1000 | 10 to 100 | 10 to 100 | < 10 | 10 to 100 |  |  |  |  |  | CNC(=O)c1ccccc1Nc1nc(Nc2ccc(N3CCN(C(=O)N[C@H]4CC[C@@H](NCCC#Cc5ccc6c(c5)CN(C5CCC(=O)NC5=O)C6=O)CC4)CC3)cc2)ncc1Cl (stereo partly shown) [UB-181103]
21 | 100 to 1000 | 10 to 100 | 10 to 100 | < 10 | 10 to 100 |  |  |  |  |  | CNC(=O)c1ccccc1Nc1nc(Nc2ccc(N3CCN(C(=O)N[C@H]4CC[C@@H](NCCC#Cc5cccc6c5CN(C5CCC(=O)NC5=O)C6=O)CC4)CC3)cc2)ncc1Cl (stereo partly shown) [UB-181104]
22 |  |  |  |  |  | 10 to 100 | 10 to 100 | 10 to 100 | 100 to 1000 | < 10 | CNC(=O)c1ccccc1Nc1nc(Nc2ccc(N3CCN(C(=O)N[C@H]4CC[C@@H](NCCOCCC#Cc5ccc6c(c5)CN(C5CCC(=O)NC5=O)C6=O)CC4)CC3)cc2)ncc1Cl (stereo partly shown) [UB-181115]
23 |  |  |  |  |  | 100 to 1000 | 100 to 1000 | 100 to 1000 | 100 to 1000 | < 10 | CNC(=O)c1ccccc1Nc1nc(Nc2ccc(N3CCN(C(=O)N[C@H]4CC[C@@H](NCCOCCC#Cc5cccc6c5CN(C5CCC(=O)NC5=O)C6=O)CC4)CC3)cc2)ncc1Cl (stereo partly shown) [UB-181121]
24 | 100 to 1000 | 100 to 1000 | 100 to 1000 | < 10 | 100 to 1000 |  |  |  |  |  | CNC(=O)c1ccccc1Nc1nc(Nc2ccc(C3CCN(C(=O)N[C@H]4CC[C@@H](NCCOCCC#Cc5ccc6c(c5)CN(C5CCC(=O)NC5=O)C6=O)CC4)CC3)cc2)ncc1Cl (stereo partly shown) [UB-181122]
25 | 10 to 100 | 10 to 100 | 10 to 100 | < 10 | 10 to 100 |  |  |  |  |  | CNC(=O)c1ccccc1Nc1nc(Nc2ccc(N3CCN(C(=O)NC4CCC(N[C@H]5CC[C@@H](OCC#Cc6ccc7c(c6)CN(C6CCC(=O)NC6=O)C7=O)CC5)CC4)CC3)cc2)ncc1Cl (stereo partly shown) [UB-181127]
26 | > 1000 | > 1000 | 10 to 100 | 10 to 100 | 100 to 1000 |  |  |  |  |  | CNC(=O)c1ccccc1Nc1nc(Nc2ccc(N3CCN(C(=O)NC4CCC(NC5CCC(OCC#Cc6ccc7c(c6)CN(C6CCC(=O)NC6=O)C7=O)CC5)CC4)CC3)cc2)ncc1Cl (stereo not shown) [UB-181131]
27 | 100 to 1000 | 10 to 100 | 100 to 1000 | < 10 | 100 to 1000 |  |  |  |  |  | CNC(=O)c1ccccc1Nc1nc(Nc2ccc(C3CCN(C(=O)N[C@H]4CC[C@H](NCCC#Cc5ccc6c(c5)CN(C5CCC(=O)NC5=O)C6=O)CC4)CC3)cc2)ncc1Cl (stereo partly shown) [UB-181137]
28 | 100 to 1000 | 10 to 100 | 10 to 100 | < 10 | 100 to 1000 |  |  |  |  |  | CNC(=O)c1ccccc1Nc1nc(Nc2ccc(C3CCN(C(=O)N[C@H]4CC[C@H](NCCC#Cc5cccc6c5CN(C5CCC(=O)NC5=O)C6=O)CC4)CC3)cc2)ncc1Cl (stereo partly shown) [UB-181138]
29 | 100 to 1000 | 100 to 1000 | 100 to 1000 | < 10 | 100 to 1000 |  |  |  |  |  | CNC(=O)c1ccccc1Nc1nc(Nc2ccc(N3CCN(C(=O)N[C@H]4CC[C@@H](NCCOCCC#Cc5cccc6c5CN(C5CCC(=O)NC5=O)C6=O)CC4)CC3)nc2)ncc1Cl (stereo partly shown) [UB-181141]
